This is an account of results in patent US20150202329A1, “Methods and Composition for Detecting Intestinal Cell-Barrier Dysfunction” (priority 2012, published 2015).

In data set [1] the test system is IL-10 KO mice. Description: Permeation of orogavaged 0.5 μm microspheres into blood of IL-10 KO mice. Format: in vivo, mouse. The conditions noted are these: 10 mg/kg, day 7. The procedure:
(§1) To evaluate the effect of caspase-1 inhibition on IEC extrusion over time in vivo, we treated the IL-10 KO mice with a selective caspase-1 inhibitor Ac-YVAD-CMK (10 mg/kg) over 4, 7 and 10 day (5 times the mean lifespan of rodent)enterocytes^40) via intraperitoneal injections. The control IL-10 KO group received 10 days of equal volume of 2% (v/v) DMSO.
For microsphere studies, mice were gavaged with a mixture containing 10^7 Fluoresbrite® YG Microspheres with diameter of 0.5, 1.0, 2.0, 3.0, and 6.0 μm in 200 μl solution as previously described after an overnight fast. Blood samples were collected 4 hours post-administration of the beads. Whole blood mixture was then centrifuged at 1,250×g in pre-heparinized tubes for 10 min at RT, the plasma portion of the samples were removed and centrifuged at 1,250×g for 5 min before flow cytometry analysis. The remaining buffy coat and hematocrit of the samples were lysed with 5 mL of lysing buffer (4.15 g NH4Cl, 0.84 g NaHCO3, 1 ml […] EDTA at pH 8, and 500 mL of ddH2O) at RT, mixed and centrifuged at 1,250×g for 5 min at 4° C.×3. The supernatant was discarded. The WBC pellet was re-suspended in 400 μl of 0.03% PBS with Fetal Bovine Albumin. The plasma and WBC pellet samples were analyzed with flow cytometry for determination of microsphere counts.

Data set [2] has as its system T84 monolayers. Description: Trans-epithelial electrical resistance (TER) of T84 monolayers. Type of data set: cell-based, human. An excerpt: (§2) To determine whether this form of cell extrusion results in loss of barrier function, we measured the trans-epithelial electrical resistance (TER). […] Given that the breach in the T84 monolayers appeared to be 1-2 μm in diameter on TEM images, we evaluated the epithelial integrity to microparticles (1 μm Fluoresbrite® Microspheres) and microbes (E. coli […]) using the lowest dose of nigericin treatment. […] Fluoresbrite microspheres and E. coli TMW2.497 were recovered in the media from basolateral well.
T84 human colon cancer epithelial cells were maintained in tissue culture plates (10 cm) in Dulbecco's minimal essential medium (DMEM)/F-12, 10% (v/v) heat-inactivated fetal bovine serum (FBS), 1%(w/v) penicillin-streptomycin. The cells were plated onto Transwells (2×10^5 cells/well, 6.5 mm diameter; 0.4 μm-pore size; Corning Life Sciences, Tewksbury, Mass.) and grown until development of apical junctional complexes (as indicated by a transepithelial resistance of >2,000 Ω·cm^2) for studies. For caspase-1 inhibition experiment, prior to nigericin treatment, the tissue culture medium was removed and fresh medium with 50 µM caspase-1 inhibitor (Ac-YVAD-CMK) was introduced. Nigericin (10, 25, 50 µM) was added to both the apical and basolateral aspect of the Transwell. […] For microspheres and […] experiments, after overnight incubation with nigericin, 10^7/ml of 1 μm Microspheres or 10^9/ml E. coli TMW2.497 were added to the apical aspect of Transwell. One hour after incubation with the microspheres or E. coli, the cells were fixed in cold methanol for 5 minutes. Cells were then permeabilized in 0.2%(v/v) Triton X-100 for 15 min and blocked for one hour in PBS with 0.2% (v/v) goat serum and 1%(w/v) BSA.

The test system of data set [3] is IL-10 KO mice. Description: IEC extrusion measured as epithelial gap density by confocal endomicroscopy in IL-10 KO mice. The conditions noted are these: 10 mg/kg intraperitoneal, 4, 7 and 10 days. Format: in vivo, mouse. On the procedure: as §1
Confocal laser endomicroscopy of the mouse ileum and confocal microscopy of whole mount mouse intestinal tissues for determination of epithelial gap density were performed using previously described methods. Cell culture, human and mouse intestinal slides were imaged using a spinning disc confocal microscope (Quorum Technologies Inc, Guelph, ON) using previously described methods.

The test system of data set [4] is T84 monolayers. Description: Movement of microspheres and E. coli across the T84 monolayer in Transwell. Type of data set: cell-based, human. The conditions noted are these: nigericin 10 μM overnight (lowest dose).
Description: as §2
T84 human colon cancer epithelial cells were maintained in tissue culture plates (10 cm) in Dulbecco's minimal essential medium (DMEM)/F-12, 10% (v/v) heat-inactivated fetal bovine serum (FBS), 1%(w/v) penicillin-streptomycin. The cells were plated onto Transwells (2×10^5 cells/well, 6.5 mm diameter; 0.4 μm-pore size; Corning Life Sciences, Tewksbury, Mass.) and grown until development of apical junctional complexes (as indicated by a transepithelial resistance of >2,000 Ω·cm^2) for studies. For caspase-1 inhibition experiment, prior to nigericin treatment, the tissue culture medium was removed and fresh medium with 50 µM caspase-1 inhibitor (Ac-YVAD-CMK) was introduced. […] Transepithelial resistance (TER) was measured at before and 3 h after Nigericin treatment, using a Millicell-ERS Voltmeter and chopstick electrodes (Millipore, Bedford, Mass.). […]

For data set [5] the following is noted: in vivo; cited from earlier work.
A further data set relates to polarized T84 monolayers. Kind of data set: Caspase-1 activation and cell extrusion in nigericin-treated polarized T84 monolayers (FLICA 1 staining, Western blot). Type of data set: cell-based, human. The source says: To investigate the morphology of caspase-1-induced IEC extrusion, we applied nigericin, a well-established Nlrp3-dependent inflammasome activator to polarized T84 monolayers. […] Active caspase-1 expression in nigericin-treated T84 cells was confirmed by Western blot analysis (FIG. 1b).
T84 human colon cancer epithelial cells were maintained in tissue culture plates (10 cm) in Dulbecco's minimal essential medium (DMEM)/F-12, 10% (v/v) heat-inactivated fetal bovine serum (FBS), 1%(w/v) penicillin-streptomycin. The cells were plated onto Transwells (2×10^5 cells/well, 6.5 mm diameter; 0.4 μm-pore size; Corning Life Sciences, Tewksbury, Mass.) and grown until development of apical junctional complexes (as indicated by a transepithelial resistance of >2,000 Ω·cm^2) for studies. For caspase-1 inhibition experiment, prior to nigericin treatment, the tissue culture medium was removed and fresh medium with 50 µM caspase-1 inhibitor (Ac-YVAD-CMK) was introduced. Nigericin (10, 25, 50 µM) was added to both the apical and basolateral aspect of the Transwell. Transepithelial resistance (TER) was measured at before and 3 h after Nigericin treatment, using a Millicell-ERS Voltmeter and chopstick electrodes (Millipore, Bedford, Mass.). […]
(Immunoblotting shows a protein as a band on a membrane.)

Entries after “also recorded” stand apart in the source; their conditions may differ.

In the case of Ac-YVAD-CMK, the “permeation of orogavaged 0.5 μm latex microspheres into blood” value with IL-10 KO mice [1] is “normalization of permeation”. The “reversal of nigericin-induced TER reduction measured by ECIS” value with T84 monolayers [2] (nigericin 25 μM, overnight) was “reversed”. The “reversal of nigericin-induced TER reduction / barrier dysfunction” value with T84 monolayers [2] (pre-treatment with caspase-1 inhibitor, nigericin 25 μM, 3 hours and overnight) was “reversed; also recorded: abrogated”. Besides, the “IEC extrusion as epithelial gap density” value in the data set with IL-10 KO mice [3] was “Time-dependent reduction in IEC extrusion”.
Turning to `CO[C@@H]1C[C@@H](C[C@H]2CC[C@H](C)[C@H]([C@@H](C)C(=O)O)O2)O[C@]2(O[C@](C)([C@H]3CC[C@@](C)([C@@H]4O[C@@H]([C@H]5O[C@@](O)(CO)[C@H](C)C[C@@H]5C)C[C@@H]4C)O3)C[C@H]2C)[C@@H]1C` [nigericin, Nigericin], the “TER of T84 monolayers (barrier function)” value in the data set on T84 monolayers [2] (nigericin 10, 25, 50 μM, 3 h) is reported as “dose-dependent reduction in TER; also recorded: dose-dependent barrier dysfunction developed”. The “TER as measured by ECIS over time” value in the data set with T84 monolayers [2] (nigericin, overnight) is “time-dependent reduction in TER”. For the same compound, the “movement of 1 μm microspheres and E. coli TMW2.497 across the monolayer” value in the data set on T84 monolayers [4] is “Movements of microspheres and E. coli from the upper chamber through the monolayer to the lower chamber of the Transwell were observed”. The systemic toxicity result in data set [5] is recorded as “significant systemic toxicity”. Besides, in the data set on polarized T84 monolayers (nigericin 50 μM, T84 cells), the “active caspase-1 (p10) expression by Western blot” value was “increased active caspase-1 (p10) expression”. Besides, the “activated caspase-1 and cell extrusion by FLICA 1 staining” value with polarized T84 monolayers (nigericin, 3-hours post-treatment) was “increased activated caspase-1 and cell extrusion”.
